Source: patent publication US12139487B2, “Compounds and uses thereof” (Foghorn Therapeutics Inc., priority 2022, dated 2024)

Experiments:
[1] = target: T1, BRM (Homo sapiens, UniProt P51531); experiment: ATPase catalytic activity assay (ADP-Glo), BRM; type: biochemical; details: Table 10; for Ratio (BRG1 IC50 (μM) divided by BRM IC50 (μM)): ATPase assay, selectivity BRG1/BRM; for IC50: ATPase catalytic activity assay (ADP-Glo)
T1 construct: made in house; host or cells: High Five insect cells
Outline: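 Reaction holds 30 nM BRM, 20 nM salmon sperm DNA and 400 μM ATP in 20 mM Tris pH 8, 20 mM MgCl2, 50 mM NaCl, 0.1% Tween-20, 1 mM DTT. Incubated 1 h at room temperature. ADP formed is detected by ADP-Glo luminescence.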

[2] = target: T2, BRG-1 (Homo sapiens, UniProt P51532); experiment: ATPase catalytic activity assay (ADP-Glo), BRG-1; type: biochemical; details: Table 10, read-out: BRG1 IC50
T2 construct: made in house; host or cells: High Five insect cells
T2 sequence (P51532 whole entry): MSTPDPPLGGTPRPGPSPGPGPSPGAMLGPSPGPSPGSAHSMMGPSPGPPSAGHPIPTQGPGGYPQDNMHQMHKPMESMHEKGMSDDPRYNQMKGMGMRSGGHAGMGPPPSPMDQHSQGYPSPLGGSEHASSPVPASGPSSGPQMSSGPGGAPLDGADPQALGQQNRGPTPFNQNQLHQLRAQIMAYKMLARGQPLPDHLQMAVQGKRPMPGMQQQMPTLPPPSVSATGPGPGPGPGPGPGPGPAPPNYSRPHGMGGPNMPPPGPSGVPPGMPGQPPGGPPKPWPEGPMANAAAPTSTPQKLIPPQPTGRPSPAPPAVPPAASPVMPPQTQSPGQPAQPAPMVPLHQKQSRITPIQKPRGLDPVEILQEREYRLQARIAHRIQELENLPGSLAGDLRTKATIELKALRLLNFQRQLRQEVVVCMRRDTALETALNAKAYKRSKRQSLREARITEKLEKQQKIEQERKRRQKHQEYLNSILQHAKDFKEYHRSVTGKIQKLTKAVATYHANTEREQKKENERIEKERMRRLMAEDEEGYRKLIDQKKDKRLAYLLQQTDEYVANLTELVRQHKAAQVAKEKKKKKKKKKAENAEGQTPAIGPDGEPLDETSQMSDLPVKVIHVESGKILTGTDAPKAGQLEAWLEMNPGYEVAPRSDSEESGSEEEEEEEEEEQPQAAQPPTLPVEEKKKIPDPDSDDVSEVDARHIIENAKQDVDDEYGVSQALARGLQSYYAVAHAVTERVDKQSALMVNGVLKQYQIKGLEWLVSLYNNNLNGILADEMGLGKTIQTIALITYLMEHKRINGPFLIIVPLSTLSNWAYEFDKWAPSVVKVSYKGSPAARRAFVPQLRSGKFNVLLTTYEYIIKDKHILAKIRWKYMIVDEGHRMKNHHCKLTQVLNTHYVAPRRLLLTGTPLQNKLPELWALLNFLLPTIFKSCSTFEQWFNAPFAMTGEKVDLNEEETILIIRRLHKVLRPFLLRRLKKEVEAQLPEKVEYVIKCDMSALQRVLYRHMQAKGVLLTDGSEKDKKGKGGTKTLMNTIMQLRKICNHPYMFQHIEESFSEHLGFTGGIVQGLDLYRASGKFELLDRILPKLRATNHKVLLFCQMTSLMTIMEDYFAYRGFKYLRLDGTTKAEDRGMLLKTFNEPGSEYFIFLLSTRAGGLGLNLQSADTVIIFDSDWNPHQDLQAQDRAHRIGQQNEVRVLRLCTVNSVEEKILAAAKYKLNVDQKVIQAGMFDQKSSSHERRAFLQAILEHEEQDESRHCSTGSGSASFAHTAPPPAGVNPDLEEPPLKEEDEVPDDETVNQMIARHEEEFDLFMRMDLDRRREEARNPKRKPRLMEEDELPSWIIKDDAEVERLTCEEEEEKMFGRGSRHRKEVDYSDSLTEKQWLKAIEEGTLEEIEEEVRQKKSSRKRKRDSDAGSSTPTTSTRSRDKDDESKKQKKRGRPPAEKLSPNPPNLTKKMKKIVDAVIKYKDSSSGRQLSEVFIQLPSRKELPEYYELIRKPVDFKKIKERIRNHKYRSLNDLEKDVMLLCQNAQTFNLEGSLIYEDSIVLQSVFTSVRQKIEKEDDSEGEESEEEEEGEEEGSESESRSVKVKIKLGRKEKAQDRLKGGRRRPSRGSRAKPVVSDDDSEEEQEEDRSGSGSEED
Outline: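 BRG-1 ATPase activity was measured by ADP-Glo. Unconsumed ATP was depleted for 40 min at room temperature, then ADP was converted to ATP for 60 min and read as luminescence.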

T1 sequence (P51531 whole entry): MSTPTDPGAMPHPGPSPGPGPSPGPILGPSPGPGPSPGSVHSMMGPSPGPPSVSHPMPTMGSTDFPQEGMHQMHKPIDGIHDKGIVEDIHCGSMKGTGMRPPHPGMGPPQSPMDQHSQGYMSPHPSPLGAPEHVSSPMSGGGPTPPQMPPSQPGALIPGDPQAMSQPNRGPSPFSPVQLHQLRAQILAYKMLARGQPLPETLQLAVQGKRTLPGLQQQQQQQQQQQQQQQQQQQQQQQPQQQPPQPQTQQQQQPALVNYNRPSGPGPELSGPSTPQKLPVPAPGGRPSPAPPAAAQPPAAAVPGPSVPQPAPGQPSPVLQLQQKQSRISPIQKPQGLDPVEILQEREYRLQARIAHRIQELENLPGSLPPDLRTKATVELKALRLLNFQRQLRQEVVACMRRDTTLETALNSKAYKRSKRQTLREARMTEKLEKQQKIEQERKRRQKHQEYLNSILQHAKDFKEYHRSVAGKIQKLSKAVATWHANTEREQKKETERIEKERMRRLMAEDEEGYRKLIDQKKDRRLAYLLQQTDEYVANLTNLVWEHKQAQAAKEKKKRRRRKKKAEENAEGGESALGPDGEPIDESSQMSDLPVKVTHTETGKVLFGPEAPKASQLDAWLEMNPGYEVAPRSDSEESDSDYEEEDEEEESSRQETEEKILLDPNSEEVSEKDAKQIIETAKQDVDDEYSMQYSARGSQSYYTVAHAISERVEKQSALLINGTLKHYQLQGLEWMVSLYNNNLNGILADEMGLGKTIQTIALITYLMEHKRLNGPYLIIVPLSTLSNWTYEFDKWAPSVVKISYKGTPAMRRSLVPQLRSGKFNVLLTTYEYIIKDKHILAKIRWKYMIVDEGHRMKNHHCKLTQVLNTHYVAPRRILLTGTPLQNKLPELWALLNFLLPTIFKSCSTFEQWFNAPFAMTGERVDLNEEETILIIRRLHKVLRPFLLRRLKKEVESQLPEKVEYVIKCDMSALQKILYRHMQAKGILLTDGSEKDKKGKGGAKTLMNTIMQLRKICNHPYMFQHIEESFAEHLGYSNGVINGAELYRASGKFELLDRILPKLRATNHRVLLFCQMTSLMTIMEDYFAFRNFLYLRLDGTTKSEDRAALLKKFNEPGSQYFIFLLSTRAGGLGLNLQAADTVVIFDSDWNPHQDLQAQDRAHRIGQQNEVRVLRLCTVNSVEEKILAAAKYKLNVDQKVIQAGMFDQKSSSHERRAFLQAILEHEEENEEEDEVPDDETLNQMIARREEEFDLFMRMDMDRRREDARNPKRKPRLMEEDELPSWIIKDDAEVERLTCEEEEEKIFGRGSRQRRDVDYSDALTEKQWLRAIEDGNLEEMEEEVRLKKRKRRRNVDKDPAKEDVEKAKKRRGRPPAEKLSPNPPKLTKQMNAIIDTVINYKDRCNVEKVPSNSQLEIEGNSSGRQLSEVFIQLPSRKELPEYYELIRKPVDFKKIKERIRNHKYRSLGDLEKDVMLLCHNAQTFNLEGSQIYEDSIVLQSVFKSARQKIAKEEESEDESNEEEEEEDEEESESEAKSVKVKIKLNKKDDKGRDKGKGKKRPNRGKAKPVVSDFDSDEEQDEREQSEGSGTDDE

| Ratio (BRG1 IC50 (μM) divided by BRM IC50 (μM)) [1] | IC50 [1] [nM] | IC50 [2] [nM] | SMILES |
| --- | --- | --- | --- |
| 13.32 | 5.8 | 76.6 | O=C(NCc1cc2nc(N3CCOc4cc(N5CCC5)cnc43)ccc2cn1)c1ccc2c(c1)S(=O)(=O)[C@@H](F)CCO2 [Compound 187] |
| 20.95 | 5.8 | 132 | O=C(NCc1cc2nc(-c3ccnc(N4CCCC4)n3)ccc2cn1)c1cc(F)c2c(c1)S(=O)(=O)[C@@H](F)CCO2 [Compound 188] |
| 16.84 | 5.8 | 107 | COCCOc1ccnc2c1CCCN2c1ccc2cnc(CNC(=O)c3cc(F)c4c(c3)S(=O)(=O)[C@@H](F)CCO4)cc2n1 [Compound 189] |
| 20.33 | 5.8 | 127 | O=C(NCc1cc2nc(N3CCOc4cc(N5CCC5)cnc43)ccc2cn1)c1cc(F)c2c(c1)S(=O)(=O)[C@@H](F)CCO2 [Compound 190] |
| 10.64 | 5.8 | 62.1 | Cn1ccc2c(-c3ccc4cnc(CNC(=O)c5cc(F)c6c(c5)S(=O)(=O)[C@@H](F)CCO6)cc4n3)cccc21 [Compound 191] |
| 11.37 | 5.9 | 66.5 | C[C@@H]1C[C@@H]1c1cnc2c(c1)OCCN2c1ccc2cnc(CNC(=O)c3cc(F)c4c(c3)S(=O)(=O)[C@@H](F)CCO4)cc2n1 [Compound 192] |
| 16.06 | 5.9 | 110 | COc1nc(C)ccc1-c1ccc2cnc(CNC(=O)c3cc(F)c4c(c3)S(=O)(=O)[C@@H](F)CCO4)cc2n1 [Compound 193] |
| 11.72 | 5.9 | 69.2 | CCCc1ccnc2c1OCCN2c1ccc2cnc(CNC(=O)c3cc(F)c4c(c3)S(=O)(=O)[C@@H](F)CCO4)cc2n1 [Compound 194] |
| 24.88 | 5.9 | 168 | O=C(NCc1cc2nc(-c3ccnc([C@H]4CC4(F)F)n3)ccc2cn1)c1cc(F)c2c(c1)S(=O)(=O)[C@@H](F)CCO2 [Compound 195] |
| 38.53 | 99.8 | 3840 | O=C(NCc1cc2cc(-c3cccc(OC(F)F)n3)ccc2nn1)c1cc(Cl)c2c(c1)S(=O)(=O)[C@@H](F)COC2 [Compound 196] |
| 14.25 | 6 | 84.6 | COc1nc(C(F)F)ccc1-c1ccc2cnc(CNC(=O)c3ccc4c(c3)S(=O)(=O)[C@@H](F)CO[C@H]4C)cc2n1 [Compound 197] |
| 17.01 | 6 | 103 | C[C@H](F)c1cnc2c(c1)OCCN2c1ccc2cnc(CNC(=O)c3cc(F)c4c(c3)S(=O)(=O)[C@@H](F)CCO4)cc2n1 [Compound 198] |
| 16.77 | 6.1 | 101 | C[C@@H]1CN(c2cccc(-c3ccc4cnc(CNC(=O)c5ccc6c(c5)S(=O)(=O)[C@H](F)CO[C@H]6C)cc4n3)n2)C[C@H](C)O1 [Compound 200] |
| 10.41 | 6.1 | 64 | COCCc1cnc2c(c1)OCCN2c1ccc2cnc(CNC(=O)c3cc(F)c4c(c3)S(=O)(=O)[C@@H](F)CCO4)cc2n1 [Compound 201] |
| 15.85 | 6.1 | 125 | COc1nc([C@@H](F)CF)ccc1-c1ccc2cnc(CNC(=O)c3cc(F)c4c(c3)S(=O)(=O)[C@@H](F)CCO4)cc2n1 [Compound 202] |
| 14.89 | 6.1 | 92 | [2H]C1([2H])Oc2c(F)cc(C(=O)NCc3cc4nc(N5CCOc6ccc(C(F)F)nc65)ccc4cn3)cc2S(=O)(=O)[C@@]([2H])(F)C1([2H])[2H] [Compound 203] |
| 11.71 | 6.1 | 71.7 | O=C(NCc1cc2nc(N3CCOc4cc(N5CCC(F)CC5)cnc43)ccc2cn1)c1cc(F)c2c(c1)S(=O)(=O)[C@@H](F)CCO2 [Compound 204] |
| 23.40 | 6.1 | 128 | O=C(NCc1cc2nc(-c3cccc(OC(F)F)n3)ccc2cn1)c1cc(F)c2c(c1)S(=O)(=O)[C@@H](F)COC2 [Compound 205] |
| 31.39 | 6.2 | 197 | Cc1cc(C(=O)NCc2cc3nc(-c4cccc(OC(F)F)n4)ccc3cn2)cc2c1COC[C@H](F)S2(=O)=O [Compound 206] |
| 18.77 | 6.2 | 113 | O=C(NCc1cc2nc(N3CCOc4ccc([C@@H]5C[C@H]5F)nc43)ccc2cn1)c1cc(F)c2c(c1)S(=O)(=O)[C@@H](F)COC2 [Compound 207] |

| Ratio (BRG1 IC50 (μM) divided by BRM IC50 (μM)) [1] | IC50 [1] [nM] | IC50 [2] [nM] | SMILES |
| --- | --- | --- | --- |
| 13.76 | 6.5 | 89.3 | CO[C@@H]1C[C@H]1N(C)c1cccc(-c2ccc3cnc(CNC(=O)c4cc(F)c5c(c4)S(=O)(=O)[C@@H](F)COC5)cc3n2)n1 [Compound 215] |
| 21.18 | 6.5 | 148 | O=C(NCc1cc2nc(N3CCOc4cc(C5CC5)cnc43)ccc2cn1)c1cc(Cl)c2c(c1)S(=O)(=O)[C@@H](F)CCO2 [Compound 216] |
| 9.68 | 6.5 | 63.4 | O=C(NCc1cc2nc(N3CCCc4sc(C(F)F)nc43)ccc2cn1)c1cc(F)c2c(c1)S(=O)(=O)[C@@H](F)CCO2 [Compound 217] |
| 27.18 | 6.9 | 178 | COc1nc(C(F)F)ccc1-c1ccc2cnc(CNC(=O)c3cc(Cl)c4c(c3)S(=O)(=O)[C@@H](F)COC4)cc2n1 [Compound 221] |
| 11.79 | 7 | 79.8 | C[C@@H]1CN(c2cccc(-c3ccc4cnc(CNC(=O)c5cc(F)c6c(c5)S(=O)(=O)[C@H](F)CO[C@@H]6C)cc4n3)n2)C[C@H](C)O1 [Compound 222] |
| 13.44 | 7 | 102 | C[C@H]1C[C@@H]1c1cnc2c(c1)OCCN2c1ccc2cnc(CNC(=O)c3cc(F)c4c(c3)S(=O)(=O)[C@@H](F)CCO4)cc2n1 [Compound 223] |
| 15.91 | 7.1 | 115 | COCc1cnc2c(c1)OCCN2c1ccc2cnc(CNC(=O)c3cc(F)c4c(c3)S(=O)(=O)[C@@H](F)CCO4)cc2n1 [Compound 224] |
| 49.95 | 7.1 | 461 | O=C(NCc1cc2nc(-c3cccc(OC(F)F)n3)ccc2cn1)c1cc(Cl)c2c(c1)S(=O)(=O)[C@@H](F)CCO2 [Compound 225] |
| 14.90 | 7.1 | 106 | [2H]C([2H])([2H])Oc1nscc1-c1ccc2cnc(CNC(=O)c3cc(F)c4c(c3)S(=O)(=O)[C@@H](F)CCO4)cc2n1 [Compound 226] |
| 9.91 | 7.1 | 70.5 | COc1nc(-c2ccc3cnc(CNC(=O)c4cc(F)c5c(c4)S(=O)(=O)[C@@H](F)CCO5)cc3n2)ccc1[C@H](F)CF [Compound 227] |
| 14.53 | 7.1 | 108 | O=C(NCc1cc2nc(-c3ccnc(N4CCC4)n3)ccc2cn1)c1cc(F)c2c(c1)S(=O)(=O)[C@@H](F)COC2 [Compound 228] |
| 10.03 | 7.2 | 72.3 | O=C(NCc1cc2nc(N3CCCc4cc(OC(F)F)cnc43)ccc2cn1)c1cc(F)c2c(c1)S(=O)(=O)[C@@H](F)CCO2 [Compound 229] |
| 18.99 | 7.2 | 153 | O=C(NCc1cc2cc(-c3cncc(C4CC4)n3)ccc2cn1)c1cc(F)c2c(c1)S(=O)(=O)[C@@H](F)CCO2 [Compound 230] |
| 14.03 | 7.2 | 102 | C[C@@H]1CN(c2cccc(-c3ccc4nnc(CNC(=O)c5cc(Cl)c6c(c5)S(=O)(=O)[C@@H](F)CCO6)cc4c3)n2)C[C@H](C)O1 [Compound 231] |
| 23.91 | 7.4 | 163 | O=C(NCc1cc2cc(-c3cccc(OC(F)F)n3)ccc2cn1)c1cc(Cl)c2c(c1)S(=O)(=O)[C@@H](F)COC2 [Compound 235, (2R)-6-chloro-N-[[6-[6-(difluoromethoxy)-2-pyridyl]-3-isoquinolyl]methyl]-2-fluoro-1,1-dioxo-3,5-dihydro-2H-4,1λ6-benzoxathiepine-8-carboxamide] |
| 21.61 | 7.4 | 160 | C[C@@H]1CCN1c1cnc2c(c1)CCCN2c1ccc2cnc(CNC(=O)c3cc(F)c4c(c3)S(=O)(=O)[C@@H](F)CCO4)cc2n1 [Compound 236] |
| 25.36 | 7.6 | 172 | Cc1cc(C(=O)NCc2cc3nc(N4CCOc5ccc(C(F)F)nc54)ccc3cn2)cc2c1COC[C@H](F)S2(=O)=O [Compound 237] |
| 17.11 | 7.6 | 132 | O=C(NCc1cc2nc(-c3cncc(C4CC4)n3)ccc2cn1)c1cc(F)c2c(c1)S(=O)(=O)[C@@H](F)COC2 [Compound 238] |
| 12.22 | 7.6 | 93.2 | CC#Cc1cnc2c(c1)OCCN2c1ccc2cnc(CNC(=O)c3cc(F)c4c(c3)S(=O)(=O)[C@@H](F)COC4)cc2n1 [Compound 239] |
